# Laboratory results as given in patent US9040580B2, “Method for prevention or treatment of degenerative neurologial brain disorders” (B[…]., LTD., priority 2010, dated 2015).
# Experiments:
# [1] = Hydroxyl radical removal ability test (Fenton reaction, DMPO spin trap, ESR); format: biochemical
# Description: In order to identify active oxygen removal ability of methylparaben (MP), Fenton reaction [H2O2+FeSO4] was performed to derive hydroxyl radicals. The derived hydroxyl radicals were entrapped by a nitrone spin trap (DMPO) and the entrapped DMPO-OH addition product was measured by an electron spin resonance (ESR) spectrometer. ESR spectrum was measured by reacting a reaction reagent [phosphate buffer solution (pH 7.4); 4.5 M DMPO 10 μl, 0.6 mM FeSO4 75 μl, 2.8 M H2O2 75 μl], methylparaben and vitamin C (VitC), then, using an ESR spectrometer (JES-FA, JEOL, Japan), and the measured results are shown in FIG. 2. In this regard, the ESR spectrometer carried out analysis using some parameters [magnetic field 340 mT, power 1.00 mW, frequency 9.19 GHz, amplitude modulation 0.2 mT, gain 200, scanning time 2 minutes, scanning width 10 mT, time constant 0.03 seconds, and temperature 20° C.].
# [2] = system: SH-SY5Y cells; assay: Cell protective activity against active oxygen (hydrogen peroxide), WST-1; format: cell-based, human; conditions: for apoptosis caused by active oxygen: 4 h pre-culture, then 300 mM H2O2 24 h, FIG. 4
# Description: (§1) In order to identify whether methylparaben (MP) in cultured cells has cell protective effects against active oxygen, excitatory brain neurotransmitter, and α-synuclein, a cell protective activity test was performed. These materials, that is, the active oxygen, excitatory brain neurotransmitter, and α-synuclein has been indicated as a cause of extensive damage of nerve cells with respect to Parkinson's disease and other degenerative cerebral disorders.
# (§2) Each well of a 96-well plate was provided with SH-SY5Y cells (5×10^3 cells; 10% FBS added DMEM medium) derived from human nerve cancer and cultured at 37° C. for 24 hours. After this, 1, 10 and 100 ng/ml of methylparaben (MP), 50 μM Vitamin E (Vit E) or 10 μM MK-801 was added and further cultured for 4 hours. Alternatively, as a control group, a culture solution without the addition of a drug was prepared. After culturing for 4 hours, 300 mM hydrogen peroxide solution (H2O2) generating active oxygen, 2 mM glutamate as an excitatory brain neurotransmitter, and 2 μM α-synuclein were further added and cultured for 24 hours. After culturing, the cultured solution was washed using phosphate buffered saline (PBS). 100 μl cultured solution provided with a 10% cell proliferation reagent (WST-1) was poured into an incubator at 37° C. and reacted for 1 hour under […], and then, absorbance was measured at 450 nm.
# [3] = system: SH-SY5Y cells; assay: Cell protective activity against excitatory brain neurotransmitter (glutamate), WST-1; format: cell-based, human; conditions: for apoptosis caused by excitatory brain neurotransmitter: 4 h pre-culture, then 2 mM glutamate 24 h, FIG. 5
# Description: as §1, §2
# [4] = system: SH-SY5Y cells; assay: Cell protective activity against α-synuclein, WST-1; format: cell-based, human; conditions: for apoptosis caused by α-synuclein: 4 h pre-culture, then 2 μM α-synuclein 24 h, FIG. 6
# Description: as §1, §2
# [5] = system: Parkinson's disease model (6-OHDA) C57BL/6 mouse; assay: Rotarod test in Parkinson's disease model; format: in vivo; conditions: FIG. 7
# Description: In order to identify whether methylparaben (MP) can improve movement dysfunction of the Parkinson's disease model, a rotarod test was performed and the test results were evaluated on day 14 after the surgery of Parkinson's disease. The rotarod test refers to a test of measuring a residence time when a mouse was riding on a rotarod without falling off. A rotation speed of the rotarod was set to 10 rpm and the rotarod test was performed over 10 minutes after an adaptation time of 5 minutes. A riding time on the rotarod was repeatedly measured three times and a mean value was calculated, then, a final value was represented in the form of the mean value±mean error (n=6).
# [6] = system: Parkinson's disease model (6-OHDA) C57BL/6 mouse; assay: Y-shaped maze test in Parkinson's disease model; format: in vivo; conditions: FIG. 9
# Description: An Y-shaped maze measurement device has three extending arms to form an alphabet ‘Y’ shape wherein each arm has a length of 35 cm, height of 9 cm, and width of 5 cm, and all arms are formed at the same angle. After positioning a test animal to face an end of one of the arms of the Y-shaped maze, the animal was allowed to freely go around the arms for 8 minutes. Motions of the animal were recorded and, when the animal with hind legs moved inside the arm, the animal was deemed to pass the arm (‘arm entry’). Movement of the animal was represented by the number of crossings (‘alternation’) and one alternation is defined to be when the animal continuously passes three arms. A quantity of spontaneous crossing movement is a percentage ratio of a practical alternation and a maximum possible alternation (that is, a total alternation −2).
# [7] = system: Parkinson's disease model (6-OHDA) C57BL/6 mouse; assay: Passive avoidance test in Parkinson's disease model; format: in vivo; conditions: FIG. 10
# Description: As a test device, a shuttle box having a size of 50×15×40 cm in width×length×height and being provided with an electrically conductive grid was used. The box was separated into two rooms, each having a size of 25×15 cm, by a connecting guillotine door (10×10 cm). Each room was illuminated using a 20 W light bulb. Noise was 60 dB or less and the test was performed in a room with very low illumination.
# A mouse was placed in one room (A) of the two rooms separated by the door and the door was opened while turning on a light at 1500 lux. By doing this, the mouse looked around the room and entered the other room (B) without illumination. At this time, the door was operated to be automatically closed. By measuring a time taken from the opening of the door while turning on the light, to the closing of the door, a latency time was determined. The mouse may pass from room A to room B if the above process is repeated. If the mouse crossed from room A into room B within 20 seconds by repeating the above described process, a training process was deemed to be completed. […]
# The mouse may develop a memory of a relation between the dark room and the foot-shock. […] After 1 day, a time taken from placing the above mouse in room A just before the mouse crossed into room B when a light turned on, was measured. […]
# [8] = established by the World Heath Organization (WHO); cited from earlier work
# [9] = system: Parkinson's disease model (6-OHDA) C57BL/6 mouse; assay: Observation of rotary movement (apomorphine-induced) in Parkinson's disease model; conditions: FIG. 8
# [10] = 100 μg/kg i.p. everyday for 2 weeks
# [11] = 200 μg/kg i.p. everyday for 2 weeks
smiles,measurement,setting,value
COC(=O)c1ccc(O)cc1 [methylparaben],"amount of active oxygen (ESR, DMPO-OH)","[1]; adding methylparaben, Fenton reaction, pH 7.4, FIG. 2",reduced an amount of active oxygen
same,active oxygen inhibitory ability compared with VitC,[1]; methylparaben 100 μg/ml,substantially similar to that of VitC
same,active oxygen inhibitory ability,"[1]; methylparaben added, in relation to concentration, FIG. 3, n=4",active oxygen inhibitory ability was increased
same,apoptosis caused by active oxygen,[2]; 10 ng/ml,significantly suppressed
same,apoptosis caused by active oxygen,[2]; 100 ng/ml,significantly suppressed
same,cell protective effect compared with positive control groups,"[2]; 10 and 100 ng/ml, H2O2",substantially similar to 50 μM VitE or 10 μM MK-801
same,apoptosis caused by excitatory brain neurotransmitter,[3]; 10 ng/ml,significantly suppressed
same,apoptosis caused by excitatory brain neurotransmitter,[3]; 100 ng/ml,significantly suppressed
same,cell protective effect compared with positive control groups,"[3]; 10 and 100 ng/ml, glutamate",substantially similar to 50 μM VitE or 10 μM MK-801
same,apoptosis caused by α-synuclein,[4]; 10 ng/ml,significantly suppressed
same,apoptosis caused by α-synuclein,[4]; 100 ng/ml,significantly suppressed
same,cell protective effect compared with positive control groups,"[4]; 10 and 100 ng/ml, α-synuclein",substantially similar to 50 μM VitE or 10 μM MK-801
same,movement ability (riding time on rotarod),[5]; [10],significantly improving
same,movement ability (riding time on rotarod),[5]; [11],significantly improving
same,"memory (spontaneous alternation, Y-shaped maze)",[6]; [10],significantly improving
same,"memory (spontaneous alternation, Y-shaped maze)",[6]; [11],significantly improving
same,"memory (latency time, passive avoidance)",[7]; [10],significantly improving
same,"memory (latency time, passive avoidance)",[7]; [11],significantly improving
same,daily proper intake,[8],10 mg/kg
same,rotary movement dysfunction (number of revolutions after apomorphine),[9]; [10],significantly improving
same,rotary movement dysfunction (number of revolutions after apomorphine),[9]; [11],significantly improving
CCOC(=O)c1ccc(O)cc1 [ethylparaben],daily proper intake,[8],10 mg/kg
